Consider one molecule from patent US20080069785A1, “PEST-CONTROL COMPOSITIONS, AND METHODS AND PRODUCTS UTILIZING SAME” (priority 2004, published 2008).

SMILES strings stand for the structures. Where “and” joins values, the source holds several entries; their conditions need not be identical. Equal values may be shown once.

In the assay the test system is adult German cockroaches, Blattella germanica. As to the kind of experiment: Direct application toxicity test, comparison of insecticides including BioUD 10 (Table 23). The settings on record: 10 μL; adult female (F); individual cockroaches. In kind it is in vivo. The protocol:
Ten μL of BioUD™10, pure Undecanone, or Raid® were separately applied to the backs (thorax and wings) of adult German cockroaches, Blattella germanica. Insects were separately placed into FLUON®-treated diet cups (Vol.=30 mL, lower diam.=3 cm, height=4 cm) to prevent escape of treated specimens.

`CCCCCCCCCC(C)=O` [Undecanone, 2-Undecanone]: the Time-to-death was 47 s and 46 s and 1200 s and 57 s.
